Assay results published in patent US7829548B2, “Compounds useful in the treatment of HIV” (Medivir AB, priority 2004, dated 2010).
Read-outs that look alike come from different tables or passages of the source. One block for each compound: values may come before it.

Key:
HIV-1 RT [1] = biological target: T1, HIV-1 RT (Human immunodeficiency virus type 1 group M subtype B, UniProt P04585); assay: DNA chain termination assay (M13mp18 template, gel autoradiography); format: biochemical
Experimental: Two deoxycytosine analogues, the conventional NRTI ddC lacking a 3′-hydroxyl group function and the compound of the invention, were subjected to a DNA chain termination assay in which DNA prolongation was conducted with M13mp18 single strand DNA template pre-annealed to an oligo-DNA primer (the forward primer sequence of 5′-[…]-3′ (SEQ ID NO:2) was purchased from Amersham UK. M13mp18 single strand […] was annealed to this oligo-DNA primer giving a final concentration of 1 mg/ml in a buffer containing 10 mM Tris-HCl, pH 7.9 and 100 mM NaCl, and was stored in aliquots at −20° C. DNA polymerization was conducted using this annealed template/primer, HIV-1 RT and natural dNTPs in a reaction incubated at 37° C. for 25 min. The reaction was stopped by the addition of Stop solution containing 95% Formamide, 20 mM EDTA, 0.05% Bromophenol Blue and 0.05% Xylene Cyanol FF (purchased from USB, United States Biochemical via Amersham UK). After denaturing the DNA products, the elongated DNA fragment was electrophoresed on an 8.0% polyacrylamide gel and visualized using autoradiography.
The assay included a negative control (the native dNTP), dual positive ddCTP controls (ddCTP, 8 uM from Sigma Chemical, St. Louis, Miss., USA and ddCTP obtained from a USB sequence kit United States Biochemical via Amersham UK). Various molecule ratios of the triphosphate of the compound of the invention and the natural dNTP were used. After the reaction was conducted as described above, the denatured DNA fragments from each individual reaction was loaded onto an 8.0% polyacrylamide gel in the following order: • 1—Negative control • 2—1st Positive control 8 μM ddCTP (purchased from Sigma) • 3—20 μM inventionTP in 200 μM dNTP • 4—30 μM inventionTP in 300 μM dNTP • 5—40 μM invention TP in 400 μM dNTP • 6—50 μM invention TP in 500 μM dNTP • 7—20 μM invention TP in 80 μM dNTP • 8—40 μM invention TP in 80 μM dNTP • 9—Empty space (no loading) • 10—2nd positive control ddCTP (from USB sequence kit)

HIV-1 RT [2] = biological target: T1, HIV-1 RT; assay: Residual free 3′-OH primer terminus after pre-incubation, second round of RT-catalysed DNA polymerization; format: biochemical; conditions: pre-incubation 10 and 30 minutes; ddCTP compared to the triphosphate of the compound of the invention
Experimental: The presence of a 3′-hydroxymethyl group in the compound of the invention should, in principle, support incorporation and elongation into the viral nucleic acid catalyzed by HIV-1 RT. A rate-limiting amount of primer-template (16S and 23S ribosomal RNA annealed with an oligo-DNA primer with the sequence of 5′-[…]-3′ (SEQ ID NO:1), custom synthesized by INNOVAGEN) was used. This was pre-incubated with 100 μM (55 times the IC50) 2′-3′-dideoxy-3′-C-hydroxymethylcytidine-triphosphate, 6.0 μM ddC-triphosphate (54 times the IC50 ddCTP), 20 μM deoxycytosine-triphosphate (20 times the Km dCTP) or the control (H2O). At the time points indicated (0, 10, 30, 60, and 120 min), the DNA polymerization process was stopped by inactivation of the RT at 70° C. for 2 min during the first round of DNA polymerization (FIG. 9).
The residual amount of primer-template directly reflects the availability of free 3′-OH primer terminus present after the first round of reaction. […] The availability of free 3′-OH at the primer terminus in the residual amount of primer-template that supported further DNA polymerization was measured and expressed as a function of pre-incubation time (FIG. 10).

[3] = test system: HIV-1 isolates from patient plasma samples; format: cell-based; conditions: for FC value: isolate 4 (K65R+M184V, R211S, K219E)
Experimental: The susceptibility of 2′,3′-dideoxy-3′-C-hydroxymethyl-cytosine on HIV-1 isolates from patient plasma samples that bear typical TAM primer rescue mutant resistant genotypes is determined by the commercially available PhenoSense HIV assay (described in Petropoulos, C J et al., (2000) Antimicrob. Agents Chemother. 44:920-928 and performed by ViroLogics, Inc). The assay is performed by amplifying the protease (PR)-RT segment of the HIV pol gene from patient plasma and inserting the amplification products into a modified HIV-1 vector derived from an NL4-3 molecular clone.
Viral stocks are prepared by co-transfecting 293 cell cultures with recombinant viral DNA vector and an expression vector that produces the amphotropic murine leukemia virus envelope proteins. Pseudotyped virus particles are harvested from the transfected cell cultures and are used to infect fresh 293 cell cultures. The recombinant viral DNA contains a luciferase gene cassette within the HIV env gene region and the production of luciferase in target cells is dependent on the completion of one round of virus replication. Drug susceptibility is measured by adding serial concentrations of the compound of the invention and the reference compounds to the cells. Drugs that inhibit virus replication reduce luciferase signal in a dose-dependent manner, providing a quantitative measure of drug susceptibility.

[4] = Release of parent compound from prodrugs in pooled human plasma; format: in vitro ADME; conditions: 37C, spiked with 5 uM of the prodrug
Experimental: Confirmation that the prodrugs of the invention convert completely to active 2′3′-dideoxy-3′-C-hydromethylcytosine parent compound can be assessed by monitoring the appearance of the parent compound in pooled human plasma, 37C, spiked with 5 uM of the prodrug: […]

[5] = test system: TAM primer rescue-related resistant HIV isolates; assay: Drug susceptibility assay in PBMC culture (p24 antigen); format: cell-based, HIV-1
Experimental: The antiviral performance of the compound of the invention against additional TAM primer rescue-related resistant HIV isolates was assayed in a PBMC culture. Isolates of HIV-1 were generated and expanded to high titer by co-cultivation of infected patient PBMC with PHA-stimulated donor PBMC (Virology Manual for ACTG HIV Laboratories). The cell-free supernatants were harvested, sequenced, and stored in aliquots at −70° C. for drug susceptibility assays.
In vitro drug susceptibility assays were performed using a modified ACTG/DOD consensus method (Virology Manual for ACTG HIV laboratories). PBMCs were pre-infected with viral stocks for 4 hrs at […] in a humidified atmosphere of 5% CO2 following 4 hr incubation. Infected cells were washed twice in media and pipetted into a microtiter plate with eight serial drug dilutions. Each well contained 100,000 pre-infected PBMC and all drug dilutions were made with cell culture medium. The drug dilutions were chosen to span the 50% inhibitory concentration (IC50) for each single drug. Control wells containing cells and virus were co-incubated on each plate. After a 7-day incubation at […] in a […] atmosphere of 5% CO2, viral growth was determined using a p24 antigen assay on supernatants (Abbott Laboratories, Chicago, USA). The percent inhibition of viral growth compared to the control well, which contained no drug, was calculated and expressed as fold changes (reductions in compounds susceptibility) compared to the control well. The reference compound AZT was run in parallel with the compound of the invention.
A cluster of representative of primer rescue-related mutant virus was selected that harbors the essential feature of primer rescue-related TAM resistant RT mutations. Strains with mutations at position M41L, D67N, K70R, L210W, T215Y/F and K219Q/E in various combinations with or without discriminative mutant M184V were used as indicated in Table 4.

HIV = assay: Antiretroviral ED50 in human H9 cells; format: cell-based; conditions: Human immunodeficiency virus 1
[6] = patient isolates 20 and 21, isolate not specified, compared to wildtype
[7] = primer rescue mutant isolates of Table 4

SMILES: Nc1ccn([C@H]2C[C@H](CO)[C@@H](COP(=O)(O)OP(=O)(O)OP(=O)(O)O)O2)c(=O)n1 [inventionTP, 2′-3′-dideoxy-3′-C-hydroxymethylcytidine-triphosphate]
- chain termination pattern (HIV-1 RT [1]; lane 3, 20 μM TP / 200 μM dNTP): led to chain termination at the site after/behind 2′3′-deoxydeoxycytosine site
- chain termination pattern (HIV-1 RT [1]; lane 4, 30 μM TP / 300 μM dNTP): led to chain termination at the site after 2′3′-deoxydeoxycytosine site
- chain termination pattern (HIV-1 RT [1]; lane 5, 40 μM TP / 400 μM dNTP): lead to chain termination at the site after 2′3′-deoxydeoxycytosine site
- chain termination pattern (HIV-1 RT [1]; lane 6, 50 μM TP / 500 μM dNTP): No specific pause (chain termination pattern) was found
- chain termination pattern (HIV-1 RT [1]; lane 7, 20 μM TP / 80 μM dNTP): led to a more pronounced chain termination effect at the site after the 2′3′-deoxydeoxycytosine site
- chain termination pattern (HIV-1 RT [1]; lane 8, 40 μM TP / 80 μM dNTP): led to a more pronounced chain termination effect at the site after the 2′3′-deoxydeoxycytosine site

SMILES: Nc1ccn([C@H]2CC[C@@H](COP(=O)(O)OP(=O)(O)OP(=O)(O)O)O2)c(=O)n1 [ddCTP, ddC-triphosphate, reference compound]
- chain termination pattern (HIV-1 RT [1]; lane 2, 1st positive control, 8 μM): led to chain termination at the anticipated 2′3′-deoxydeoxycytosine sites
- chain termination pattern (HIV-1 RT [1]; lane 10, 2nd positive control (USB sequence kit)): led to chain termination at anticipated 2′3′-deoxydeoxycytosine sites
- residual 3-OH primer terminus left to support further DNA prolongation (HIV-1 RT [2]): less than half

SMILES: Nc1nc(=O)n([C@@H]2CS[C@H](CO)O2)cc1F [FTC, emtricitabine]
- FC value [3]: > 40
- fold reduction in susceptibility [3, 6]: lost potency

SMILES: Cc1cn([C@H]2C=C[C@@H](CO)O2)c(=O)[nH]c1=O [d4T, stavudine]
- FC value [3]: 0.71
- fold reduction in susceptibility [3, 6]: lost potency

SMILES: CCCCC(=O)OC[C@H]1C[C@H](n2ccc(N)nc2=O)O[C@@H]1CO [Compound 24, 2′,3′-dideoxy-3′-C-pentanoyl-oxymethylcytosine]
- Concentration of parent uM 5 min [4]: 4.2 µM
- Concentration of parent uM 20 min [4]: 4.4 µM
- Concentration of parent uM O min [4]: 3.9 µM

- Concentration of parent uM 5 min [4]: 0.2 µM
- Concentration of parent uM 20 min [4]: 0.3 µM
- Concentration of parent uM O min [4]: 0.1 µM
SMILES: CC(C)[C@H](N)C(=O)OCC1CC(n2ccc(N)nc2=O)OC1COC(=O)[C@@H](N)C(C)C (stereo partly drawn) [Compound 8, 5′-O-L-valyl-2′,3′-dideoxy-3′-C-L-valyloxymethylcytosine]

- Concentration of parent uM 5 min [4]: 0.4 µM
- Concentration of parent uM 20 min [4]: 1.0 µM
- Concentration of parent uM O min [4]: 0 µM
SMILES: CC(C)[C@H](N)C(=O)OCC1CC(n2ccc(N)nc2=O)OC1CO (stereo partly drawn) [Compound 5, 2′-3′-dideoxy-3-C-(L-valyl-oxymethyl)cytosine]

SMILES: Nc1ccn([C@@H]2CS[C@H](CO)O2)c(=O)n1 [Compound 3TC, lamivudine]
- FC value [3]: > 200

SMILES: C[C@H](Cn1cnc2c(N)ncnc21)OCP(=O)(O)O [TNF, tenofovir]
- fold reduction in susceptibility [3, 6]: lost potency

SMILES: Cc1cn([C@H]2C[C@H](N=[N+]=[N-])[C@@H](CO)O2)c(=O)[nH]c1=O [AZT, zidovudine]
- FC value [3]: 1.11
- FC value ([5]; isolate 7086 (T215V)): 3.0
- FC value [5, 7]: a couple of hundred folds

- Concentration of parent uM 5 min [4]: 4.0 µM
- Concentration of parent uM 20 min [4]: 4.5 µM
- Concentration of parent uM O min [4]: 4.2 µM
SMILES: CCCCC(=O)OCC1CC(n2ccc(N)nc2=O)OC1COC(=O)CCCC (centres unmarked) [Compound 22, 5′-O-pentanoyl-2′-3′-dideoxy-3-C-pentanoyl-oxymethylcytosine]

SMILES: Nc1ccn([C@H]2C[C@H](CO)[C@@H](CO)O2)c(=O)n1 [compound of the invention, 2′,3′-dideoxy-3′-C-hydroxymethylcytidine]
- EC50 (HIV): ~10 nM
- FC value [3]: 3.88
- fold difference in susceptibility ([3]; patient isolate 19 (M184V + TAMs), compared to wild type HIV): 1.78 fold
- fold reduction in susceptibility ([3]; patient isolate 20 (TAM), compared to wild-type HIV): 1.0 fold
- fold reduction in susceptibility ([3]; patient isolate 21 (TAM), compared to wild-type HIV): < 1.0 fold
- fold reduction in susceptibility ([3]; patient isolate 32 (T69S + VG insertion)): 2.79 fold
- fold reduction in susceptibility ([3]; patient isolate 35 (T69S + VA insertion)): 4.29 fold
- change in drug susceptibility ([3]; patient isolates 31, 32 and 35 (T69S + XX + TAMs), compared with six reference antivirals): smallest change in drug susceptibility
- FC value [5, 7]: ≤ 2.7

- Concentration of parent uM 5 min [4]: 4.5 µM
- Concentration of parent uM 20 min [4]: 4.6 µM
- Concentration of parent uM O min [4]: 4.6 µM
SMILES: CC(C)[C@H](N)C(=O)O[C@@H](C)C(=O)OCC1CC(n2ccc(N)nc2=O)OC1CO (stereo partly drawn) [Compound 14, 2′,3′-dideoxy-3′-C-[2-S-(L-valyloxy)-propionyl]-oxymethylcytosine]

SMILES: Nc1nc(NC2CC2)c2ncn([C@H]3C=C[C@@H](CO)C3)c2n1 [ABC, abacavir]
- FC value [3]: > 9.0
- fold reduction in susceptibility [3, 6]: lost potency
